This experiment deals with T1, ΔF508-CFTR (Homo sapiens, UniProt P13569, DEL508-508).
T1 construct: host or cells: CFBE41o-, doxycycline-inducible
Briefly: CFTR cell surface levels using HRP-tagged ΔF508-CFTR expressing CFBE cells, in the presence of a co-corrector. It is filed as cell-based. The conditions noted are these: HRP-tagged ΔF508-CFTR expressing CFBE cells, in the presence of 3 μM co-corrector; for EC50: read-out: EC50. The source says: Measuring CFTR Cell Surface Levels Using HRP-Tagged AF508-CFTR Expressing CFBE Cells
The HRP-tagged AF508-CFTR cell assay measures the expression of CFTR-ΔF508 at the plasma membrane. CFTR-ΔF508 has a folding defect leading to absence of protein at the plasma membrane. This assay is used to evaluate the capacity of compounds to increase the expression of CFTR-ΔF508 at the plasma membrane. The CFTR-ΔF508 is tagged with HRP (horse radish peroxidase enzyme) within the ECL4 (Extracellular loop 4) of CFTR (Phuan, P.-W. et al. Synergy-based small-molecule screen using a human lung epithelial cell line yields AF508-CFTR correctors that augment VX-809 maximal efficacy. Mol. Pharmacol. 86, 42-51 (2014)). When HRP-tagged AF508-CFTR is present at the plasma membrane, the HRP enzyme activity can be measured. The amount of CFTR-ΔF508 that can be rescued to the plasma membrane is correlated with the amount of functional enzyme that can be measured.
There are several ways to measure the capacity of compounds to rescue CFTR-ΔF508 to the plasma membrane; either compounds are evaluated on their own and the impact on plasma membrane levels is measured or compounds are evaluated in combination with a co-corrector, i.e. a compound that rescues CFTR-ΔF508 to the plasma membrane but rescue can be enhanced by addition of compounds due to a complementary mode of action.
Activity of Compounds in Combination with Co-Corrector:
For this purpose doxycycline-inducible AF508-CFTR-HRP expressing CFBE4lo-cells (obtained from Gergely Lukacs, McGill University) were maintained in MEM (Minimum Essential Medium, Gibco; 31095) supplemented with 10% fetal bovine serum (Hyclone; SV30160.03) under puromycin (3 μg/mL) and G418 selection (0.2 mg/mL). For compound testing, cells were seeded at 4000 cells/well in white 384-well plates (Greiner; 781080) in 50 μL of medium containing 0.5 μg/mL doxycycline and incubated for 68 hours at 37° C., 5% CO2. On day four, 10 μL of test compounds diluted in PBS (phosphate buffered saline) were added to the plates at a final DMSO concentration of 0.1%. In order to measure compound synergy with a co-corrector, 3 μM co-corrector (3-[(2R,4R)-4-({[1-(2,2-difluoro-1,3-benzodioxol-5-yl)cyclopropyl]carbonyl}amino)-7-methoxy-3,4-dihydro-2H-chromen-2-yl]benzoic acid) was added along with test compounds. All compound plates contained negative controls (DMSO) and positive controls (3 μM co-corrector). Cell plates were incubated at 33° C., 5% CO2 for 20 hours. On day five, the cells were washed five times with phosphate-buffered saline, and HRP activity was assayed by the addition of 50 μL/well of HRP substrate (SuperSignal™ West Pico Chemiluminescent Substrate, Thermo Scientific; 34080). After incubation for 15 minutes in the dark, the chemiluminescence was measured using a plate reader (EnVision®, Perkin Elmer). Raw data were normalized to percentage activity values using the equation: 100×(Sample−Negative control)/(Positive control−Negative Control).

SMILES strings stand for the structures.

T1 sequence (P13569 with tags, fused parts or gaps DEL508-508): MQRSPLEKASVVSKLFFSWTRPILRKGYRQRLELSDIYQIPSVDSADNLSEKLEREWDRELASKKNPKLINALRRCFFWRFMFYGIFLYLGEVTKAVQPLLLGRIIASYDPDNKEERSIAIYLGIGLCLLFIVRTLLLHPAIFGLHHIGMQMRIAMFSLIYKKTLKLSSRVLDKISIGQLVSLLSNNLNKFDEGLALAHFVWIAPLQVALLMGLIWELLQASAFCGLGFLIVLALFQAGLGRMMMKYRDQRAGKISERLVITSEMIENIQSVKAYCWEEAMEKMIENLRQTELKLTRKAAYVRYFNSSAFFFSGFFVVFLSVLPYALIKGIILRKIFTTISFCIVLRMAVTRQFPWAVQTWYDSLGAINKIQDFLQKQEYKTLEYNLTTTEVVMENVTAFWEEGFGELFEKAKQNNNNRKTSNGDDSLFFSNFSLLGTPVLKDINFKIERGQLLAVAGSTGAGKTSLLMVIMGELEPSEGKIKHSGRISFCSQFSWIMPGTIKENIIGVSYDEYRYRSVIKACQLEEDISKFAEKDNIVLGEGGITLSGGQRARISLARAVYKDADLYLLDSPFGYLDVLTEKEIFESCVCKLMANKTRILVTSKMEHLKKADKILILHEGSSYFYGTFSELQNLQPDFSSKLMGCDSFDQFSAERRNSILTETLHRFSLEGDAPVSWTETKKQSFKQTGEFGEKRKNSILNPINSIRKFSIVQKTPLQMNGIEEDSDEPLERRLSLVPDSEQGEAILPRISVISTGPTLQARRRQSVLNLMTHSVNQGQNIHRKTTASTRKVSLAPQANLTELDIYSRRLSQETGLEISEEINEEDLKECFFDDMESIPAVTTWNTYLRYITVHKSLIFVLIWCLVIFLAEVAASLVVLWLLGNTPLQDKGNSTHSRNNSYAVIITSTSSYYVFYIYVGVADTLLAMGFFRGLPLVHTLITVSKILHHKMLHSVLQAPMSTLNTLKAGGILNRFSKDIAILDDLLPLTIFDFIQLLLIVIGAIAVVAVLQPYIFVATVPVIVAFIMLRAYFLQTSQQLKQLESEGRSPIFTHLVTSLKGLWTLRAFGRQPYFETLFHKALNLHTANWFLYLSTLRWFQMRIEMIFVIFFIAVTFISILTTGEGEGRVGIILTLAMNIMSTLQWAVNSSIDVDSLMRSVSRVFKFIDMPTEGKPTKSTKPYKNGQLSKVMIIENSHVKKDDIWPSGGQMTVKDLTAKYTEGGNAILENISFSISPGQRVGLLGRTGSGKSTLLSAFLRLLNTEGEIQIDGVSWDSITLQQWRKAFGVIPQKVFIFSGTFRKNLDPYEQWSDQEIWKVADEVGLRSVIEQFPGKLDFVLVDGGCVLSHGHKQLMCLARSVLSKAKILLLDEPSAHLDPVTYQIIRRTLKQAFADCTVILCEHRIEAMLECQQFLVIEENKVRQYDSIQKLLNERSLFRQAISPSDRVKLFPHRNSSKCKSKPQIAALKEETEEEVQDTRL

By EC50 is commonly meant the concentration that produces a half-maximal response. For the compound `CC(C)c1nn(-c2ccc(F)cc2)c2nc(C(=O)O)cc(OCCCN3CCCCC3)c12` [compound 653, 1-(4-fluorophenyl)-4-[3-(piperidin-1-yl)propoxy]-3-(propan-2-yl)-1H-pyrazolo[3,4-b]pyridine-6-carboxylic acid], the “% Activation” value was determined as 260.3% and the EC50 is 3330 nM.

In the case of `O=C(O)c1cc(N2CCS(=O)(=O)CC2)c2c(C3CCC3)nn(-c3ccccc3)c2n1` [compound 673, 3-cyclobutyl-4-(1,1-dioxo-1λ^6,4-thiazinan-4-yl)-1-phenyl-1H-pyrazolo[3,4-b]pyridine-6-carboxylic acid], the “% Activation” value is 163.25% and the EC50 worked out at 3330 nM.

Consider `CN1CCCN(c2cc(C(=O)O)nc3c2c(C2CCC2)nn3-c2ccccc2)CC1` [compound 702, 3-cyclobutyl-4-(4-methyl-1,4-diazepan-1-yl)-1-phenyl-1H-pyrazolo[3,4-b]pyridine-6-carboxylic acid], for which the “% Activation” value is 214.1% and the EC50 turned out to be 1670 nM.

Regarding `CC(C)c1nn(-c2ccc(F)cc2)c2nc(C(=O)O)cc(N3CC[C@@H](O)[C@H](F)C3)c12` [compound 668, 4-[(3R,4R)-3-fluoro-4-hydroxypiperidin-1-yl]-1-(4-fluorophenyl)-3-(propan-2-yl)-1H-pyrazolo[3,4-b]pyridine-6-carboxylic acid], the “% Activation” value is given as 341.65% and the EC50 amounted to 2360 nM.

For the compound `CC(C)c1nn(-c2ccc(F)cc2)c2nc(C(=O)O)cc(OCC3(C)COC3)c12` [compound 608, 1-(4-fluorophenyl)-4-[(3-methyloxetan-3-yl)methoxy]-3-(propan-2-yl)-1H-pyrazolo[3,4-b]pyridine-6-carboxylic acid], the “% Activation” value is 338.1% and the EC50 came to 683 nM.

Consider `O=C(O)c1cc(N2CCC(CCN3CCOCC3)CC2)c2c(C3CCC3)nn(C3CCCCC3)c2n1` [compound 807, 3-cyclobutyl-1-cyclohexyl-4-{4-[2-(morpholin-4-yl)ethyl]piperidin-1-yl}-1H-pyrazolo[3,4-b]pyridine-6-carboxylic acid], for which the “% Activation” value is 389.35% and the EC50 is 72.5 nM.

Take `CN1CCOC(C2CN(c3cc(C(=O)O)nc4c3c(C3CCC3)nn4-c3ccccc3)C2)C1` (stereo not drawn) [compound 723, 3-cyclobutyl-4-[3-(4-methylmorpholin-2-yl)azetidin-1-yl]-1-phenyl-1H-pyrazolo[3,4-b]pyridine-6-carboxylic acid]: the “% Activation” value amounted to 344.8% and the EC50 was found to be 1050 nM.

Take `CC1(N2CCCCC2)CCN(c2cc(C(=O)O)nc3c2c(C2CCC2)nn3-c2ccccc2)CC1` [compound 698, 3-cyclobutyl-4-(4′-methyl [1,4′-bipiperidin]-1′-yl)-1-phenyl-1H-pyrazolo[3,4-b]pyridine-6-carboxylic acid]: the “% Activation” value was 242.7% and the EC50 was found to be 745 nM.

On to `Cc1nn(-c2ccccc2)c2nc(C(=O)O)cc(-c3ccc(N(C)C4CCOCC4)cc3)c12` [compound 110, 3-methyl-4-{4-[methyl(oxan-4-yl)amino]phenyl}-1-phenyl-1H-pyrazolo[3,4-b]pyridine-6-carboxylic acid], for which the “% Activation” value was 397.65% and the EC50 stood at 536 nM.

As for `CN(C)C(=O)C1(N2CCCC2=O)CCN(c2cc(C(=O)O)nc3c2c(C2CCC2)nn3-c2ccccc2)CC1` [compound 718, 3-cyclobutyl-4-[4-(dimethylcarbamoyl)-4-(2-oxopyrrolidin-1-yl)piperidin-1-yl]-1-phenyl-1H-pyrazolo[3,4-b]pyridine-6-carboxylic acid], the “% Activation” value is listed as 209.8% and the EC50 came out at 1670 nM.

Consider `O=C(O)c1cc(N2CC3(CCCOC3)C2)c2c(C3CCC3)nn(-c3ccccc3)c2n1` [compound 720, 3-cyclobutyl-4-(6-oxa-2-azaspiro[3.5]nonan-2-yl)-1-phenyl-1H-pyrazolo[3,4-b]pyridine-6-carboxylic acid], for which the “% Activation” value is 263.1% and the EC50 came out at 356 nM.

As to `COCCOCC1(F)CCCN(c2cc(C(=O)O)nc3c2c(C(C)C)nn3-c2ccc(F)cc2)C1` (stereo not drawn) [compound 670, 4-{3-fluoro-3-[(2-methoxyethoxy)methyl]piperidin-1-yl}-1-(4-fluorophenyl)-3-(propan-2-yl)-1H-pyrazolo[3,4-b]pyridine-6-carboxylic acid], the “% Activation” value is 397.3% and the EC50 is 218 nM.

Turning to `CC(C)(O)C1CCN(c2cc(C(=O)O)nc3c2c(C2CCC2)nn3-c2ccccc2)CC1` [compound 659, 3-cyclobutyl-4-[4-(2-hydroxypropan-2-yl)piperidin-1-yl]-1-phenyl-1H-pyrazolo[3,4-b]pyridine-6-carboxylic acid], the “% Activation” value is on record as 424.5% and the EC50 was 69.5 nM.

Take `CCOCCN1CCC(N2CCN(c3cc(C(=O)O)nc4c3c(C(C)C)nn4-c3ccc(F)cc3)CC2)CC1` [compound 741, 4-{4-[1-(2-ethoxyethyl)piperidin-4-yl]piperazin-1-yl}-1-(4-fluorophenyl)-3-(propan-2-yl)-1H-pyrazolo[3,4-b]pyridine-6-carboxylic acid]: the “% Activation” value was found to be 303% and the EC50 was 669 nM.

As to `CC(=O)N1CCC(COc2cc(C(=O)O)nc3c2c(C(C)C)nn3-c2ccc(F)cc2)CC1` [compound 662, 4-[(1-acetylpiperidin-4-yl)methoxy]-1-(4-fluorophenyl)-3-(propan-2-yl)-1H-pyrazolo[3,4-b]pyridine-6-carboxylic acid], the “% Activation” value amounted to 310.6% and the EC50 came to 2300 nM.

Take `CC(C)c1nn(-c2ccc(F)cc2)c2nc(C(=O)O)cc(N3CCC(N4CCN(C5COC5)CC4)CC3)c12` [compound 744, 1-(4-fluorophenyl)-4-{4-[4-(oxetan-3-yl)piperazin-1-yl]piperidin-1-yl}-3-(propan-2-yl)-1H-pyrazolo[3,4-b]pyridine-6-carboxylic acid]: the “% Activation” value is recorded as 337.3% and the EC50 was 735 nM.

Turning to `COCCOCCOc1cc(C(=O)O)nc2c1c(C1CCC1)nn2-c1ccccc1` [compound 586, 3-cyclobutyl-4-[2-(2-methoxyethoxy)ethoxy]-1-phenyl-1H-pyrazolo[3,4-b]pyridine-6-carboxylic acid], the “% Activation” value is reported as 322.2% and the EC50 is 2000 nM.

For `O=C(O)c1cc(N2CCC(CN3CCOCC3)CC2)c2c(C3CCC3)nn(C3CCCCC3)c2n1` [compound 806, 3-cyclobutyl-1-cyclohexyl-4-{4-[(morpholin-4-yl)methyl]piperidin-1-yl}-1H-pyrazolo[3,4-b]pyridine-6-carboxylic acid], the “% Activation” value came out at 435.5% and the EC50 is 225 nM.

As for `O=C(O)c1cc(N2CCN(CCOCCO)CC2)c2c(C3CCC3)nn(-c3ccccc3)c2n1` [compound 714, 3-cyclobutyl-4-{4-[2-(2-hydroxyethoxy)ethyl]piperazin-1-yl}-1-phenyl-1H-pyrazolo[3,4-b]pyridine-6-carboxylic acid], the “% Activation” value was 212.5% and the EC50 was found to be 1410 nM.

`CC1(c2nn(-c3ccccc3)c3nc(C(=O)O)cc(-c4ccc(N5CCOCC5)cc4)c23)CCC1` [compound 332, 3-(1-methylcyclobutyl)-4-[4-(morpholin-4-yl)phenyl]-1-phenyl-1H-pyrazolo[3,4-b]pyridine-6-carboxylic acid]: the “% Activation” value amounted to 346.12% and the EC50 worked out at 917 nM.

In the case of `CN1CCCC(CN(C)c2cc(C(=O)O)nc3c2c(C2CCC2)nn3-c2ccccc2)C1` (stereo not drawn) [compound 593, 3-cyclobutyl-4-{methyl [(1-methylpiperidin-3-yl)methyl]amino}-1-phenyl-1H-pyrazolo[3,4-b]pyridine-6-carboxylic acid], the “% Activation” value is on record as 313.3% and the EC50 worked out at 1170 nM.

(Values after patent US9796711B2, “Substituted pyrazolo[3,4-b]pyridin-6-carboxylic acids and method of use” (AbbVie S.àr.l., priority 2015, dated 2017).)
